Columns and labels:
[1] = system: KIR2DL2 positive NK cells vs 721.221-ICP47-C1 cells; assay: CAM cytotoxicity assay, 721.221-ICP47-C1 targets; assay type: cell-based, human; conditions: NK cells from MS patients, 4 h, 26 °C, Figure 5c, MBP, pU24-6B, U24-7 p < 0.001, pU24-6A p: NS (Fisher exact test)
[2] = target: Fyn-SH3 (Homo sapiens, UniProt P06241); conditions: phosphorylated MBP; cited from earlier work
[3] = system: actin; conditions: cited from earlier work
[4] = cited from earlier work
[5] = system: NK cells from MS patients co-cultured with 721.221-ICP47-C1 cells; assay: CD107a degranulation assay; assay type: cell-based, human; conditions: 721.221-ICP47-C1 cells incubated with pU24-6A, Figure 5e; p < 0.01 (Fisher exact test)
[6] = target: T1, hNedd4L-WW3* (Homo sapiens, UniProt Q96PU5); conditions: binding to hNedd4L-WW3* domain, quoted from earlier work; ref 30 (Sang et al.); cited from earlier work
T1 construct: GST (N, cleaved yes); made in house; host or cells: E. coli BL21(DE3), pGEX-4T2
T1 sequence (Q96PU5 with tags, fused parts or gaps): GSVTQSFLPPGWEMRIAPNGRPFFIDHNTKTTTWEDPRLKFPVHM

[7] = target: T1, hNedd4L-WW3*; conditions: NMR titrations; cited from earlier work

Chain of Fyn-SH3 (P06241 with tags, fused parts or gaps): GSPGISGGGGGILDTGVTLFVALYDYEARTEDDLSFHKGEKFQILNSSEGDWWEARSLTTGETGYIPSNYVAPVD

Compound	Killing of 721.221-ICP47-C1 cells by KIR2DL2 positive NK cells [1]	Effect of MBP phosphorylation on interaction with Fyn-SH3 [2]	Effect of MBP phosphorylation on actin polymerization and bundling [3]	Effect of MBP phosphorylation on lipid interaction [4]	CD107a expression, KIR2DL2 positive vs negative NK cells [5]	ΔG° [6]	ΔH° [6]	ΔS° [6]	hNedd4L-WW3* residue perturbed [7]
MBP: myelin basic protein, a key component of the myelin sheath (IVTPRTPPPSQGKGR)	induced 721.221-ICP47-C1 cell killing	reduced interaction with Fyn-SH3	decrease the ability of MBP to polymerize actin and to bundle actin filaments	decreases the interaction between MBP and lipids	–	–	–	–	–
CSCC[C@H](N)C(=O)N[C@@H](CC(=O)O)C(=O)N1CCC[C@H]1C(=O)N1CCC[C@H]1C(=O)N[C@@H](CCCNC(=N)N)C(=O)N[C@H](C(=O)N1CCC[C@H]1C(=O)N1CCC[C@H]1C(=O)N1CCC[C@H]1C(=O)N[C@@H](CO)C(=O)N[C@@H](Cc1ccc(O)cc1)C(=O)N[C@@H](CO)C(=O)N[C@@H](CCC(=O)O)C(=O)N[C@H](C(=O)N[C@@H](CC(C)C)C(=O)O)C(C)C)[C@@H](C)OP(=O)(O)O [pU24-6A]	maintained KIR2DL2 positive NK cells unresponsive towards 721.221-ICP47-C1 cells	–	–	–	lower in KIR2DL2 positive NK cells in comparison with KIR2DL2 negative NK cells	(−3.49 ± 0.05)×10^1 kJ.mol^−1	-14 ± 0.096 kcal/mol	-79.8 ± 0.9 J. mol^−1.K^−1	R492 was found to be perturbed

From paper PMC9696605 (Viruses, 2022)
